Reference: patent USRE40233E1, “Viral variants and methods for detecting same” (Melbourne Health, priority 1996, dated 2008)

Legend:
HBV [1] = assay: serum HBV DNA level during antiviral therapy, patient A (post-OLT); assay type: in vivo, Hepatitis B Virus
Source text: The patient was transplanted because of end-stage liver failure due to chronic HBV infection. The initial post transplant course was unremarkable but by 5 months there was evidence of recurrent infection and very high levels of viral replication and deteriorating liver function (12). The histological picture was consistent with fibrosing cholestatic hepatitis. Antiviral treatment was commenced approximately 6 months post-OLT. Initially, the patient received intravenous (iv) ganciclovir (GCV; 10 mg/kg/day) in combination with iv foscarnet (PFF; 50-125 mg/kg/day; the dose depending on renal function) (12). This is the treatment of GCV+PFF described in FIG. 2 which lasted for 86 days. Maintenance iv GCV (3.3-6.7 mg/kg/day) three times per week was commenced on day 87 of antiviral treatment (GCV in FIG. 2). Oral famciclovir (250 mg, twice daily) was commenced on day 446 of therapy (FCV [I] in FIG. 2) which was increased to 500 mg twice daily (FCV [II] in […]) on day 500. The patient is currently on this treatment regime. The clinical and virological details of this patient preceding famciclovir therapy have been reported (12).
Serum samples were routinely collected and stored at −70° C. Informed consent was obtained from the patient to use these samples for research purposes. […] The 5 samples chosen for additional studies cover a period of almost four years.
Hepatitis B surface antigen (HbsAg), hepatitis B e antigen (HbeAg), anti-HBe, hepatitis B core antigen (HbcAg) specific IgG and IgM, hepatitis A specific IgM, hepatitis delta antigen and antibody, and anti-hepatitis C virus antibody were measured using commercially available immunoassays (Abbott Laboratories, North Chicago, Ill.). Only the HBV markers were positive. Hepatitis B viral DNA levels were measured and quantified using a capture hybridisation assay according to the manufacturer's directions (Digene Diagnostics Inc., Beltsville, Md.).
This reduction in viraemia was associated with clinical, biochemical and histological improvement (12). […] However, the level of HBV DNA gradually rose over time from 3,000 pg/ml on day 600 (154 days of famciclovir), to 8,800 pg/ml on day 816 (370 days famciclovir), peaking at 29,000 pg/ml on day 1302 (856 days of famciclovir), then stabilising at around 12,000 pg/ml on day 1329 (883 days of famciclovir). […] There was a 1.5 to 2 fold rise in ALT levels over the same time interval (FIG. 2) and no change in clinical status.

duck HBV = conditions: in vitro; cited from earlier work
[2] = system: HBV DNA polymerase-reverse transcriptase; conditions: in vitro; cited from earlier work
HBV [3] = assay: response to antiviral treatment, patient C; assay type: in vivo, Hepatitis B Virus
Source text: Patient B was undergoing long term famciclovir treatment (>850 days). The amino acid change selected during famciclovir treatment is shown as HBV (patient B) in FIG. 5. […] The HBV isolated during FCV treatment from patient C, is shown as HBV (patient C-FCV). All 3TC resistance mutations which developed during treatment with 3TC is shown as HBV (patient C-3TC). […] A mutation of Met 550 to Ile in the YMDD motif was detected from HBV isolated 32 days (333 days post treatment) after the HBV containing the Thr-Ser substitution was isolated.

duck HBV virus = conditions: oral, in vivo; cited from earlier work
HBV [4] = conditions: in man, patient with severe hepatitis B following OLT; cited from earlier work
HBV DNA polymerase [5] = target: T1, HBV DNA polymerase (Hepatitis B virus genotype D subtype ayw, UniProt P03156, L515M/V508L); assay: endogenous HBV DNA polymerase assay, PCV-TP sensitivity; assay type: biochemical; conditions: 100 μmol/L PCV-TP, serum HBV of patient A
T1 construct: Small aliquots of the suspension were assayed for endogenous HBV DNA polymerase activity; from tissue; host or cells: patient serum; virions pelleted through a 20% sucrose cushion and treated with Triton X-100
Protocol: (§1) Samples of serum (100 μl) were applied to a 20% w/v sucrose cushion in TNE (20 mmol/L Tris-HCl pH 7.4, 150 mmol/L NaCl2 1 mmol/L EDTA) and centrifuged at 200,000 g for 3 hr at 10° C. using an SW41 rotor in a Beckman Model L8 ultracentrifugc. The pellet was resuspended in 50 mmol/L TRIS-HCl pH 7.5 containing 1.5% v/v Triton-X100, 100 mmol/L Kcl and 0.01% v/v 2-mercaptoethanol and allowed to stand overnight at 4° C. Small aliquots of the suspension were assayed for endogenous HBV DNA polymerase activity essentially as described by Price et al (16). Each assay was performed in a total volume of 30 μl which contained 20 μl of the partly purified HBV and (final concentrations) 30 mmol/L Tris-HCl pH 7.5, 30 mmol/L MgCl2, 10 μmol/L each dATP, dTTP and dGTP, and 0.01 μM [α-^32P]-dCTP (3,000 Ci/mmol) (Dupont NEN, Boston, Mass.). To test for penciclovir triphosphate (PCV-TP) sensitivity, paired assays were performed on each sample, with an excess (100 μmol/L penciclovir-triphosphate included in the reaction mixture in one assay of each pair. After 2 hr at 37° C., reactions were stopped by spotting 20 μl aliquots of each reaction mix onto 25 mm diameter glass fibre discs (Advantex, Tokyo, Japan) which had been pre-soaked in 10% w/v trichloroacetic acid (TCA). Discs were dried before washing in ice-cold 10% w/v TCA containing 10 mmol/L sodium pyrophosphate.
(§2) Three further 10 min. washes in cold 5% v/v TCA followed. The washed discs were finally rinsed in absolute ethanol, air dried, and counted for radioactivity. Inhibition of HBV DNA polymerase activity by PCV-TP was expressed as the percentage difference in activity in the assay mix containing PCV-TP compared to the matched control. Because of limited sample amounts, it was not possible to standardize enzyme activity or to perform replicate assays. Despite the inherent variability of the assay, a general time related decrease in sensitivity of the HBV DNA polymerase to PCV-TP was evident (see Table 1).

HBV DNA polymerase [6] = assay: as above; assay type: biochemical, Hepatitis B Virus; conditions: 100 μmol/L PCV-TP, serum HBV of patient A
Protocol: as §1, §2

T1 sequence (P03156 whole entry V508L/L515M): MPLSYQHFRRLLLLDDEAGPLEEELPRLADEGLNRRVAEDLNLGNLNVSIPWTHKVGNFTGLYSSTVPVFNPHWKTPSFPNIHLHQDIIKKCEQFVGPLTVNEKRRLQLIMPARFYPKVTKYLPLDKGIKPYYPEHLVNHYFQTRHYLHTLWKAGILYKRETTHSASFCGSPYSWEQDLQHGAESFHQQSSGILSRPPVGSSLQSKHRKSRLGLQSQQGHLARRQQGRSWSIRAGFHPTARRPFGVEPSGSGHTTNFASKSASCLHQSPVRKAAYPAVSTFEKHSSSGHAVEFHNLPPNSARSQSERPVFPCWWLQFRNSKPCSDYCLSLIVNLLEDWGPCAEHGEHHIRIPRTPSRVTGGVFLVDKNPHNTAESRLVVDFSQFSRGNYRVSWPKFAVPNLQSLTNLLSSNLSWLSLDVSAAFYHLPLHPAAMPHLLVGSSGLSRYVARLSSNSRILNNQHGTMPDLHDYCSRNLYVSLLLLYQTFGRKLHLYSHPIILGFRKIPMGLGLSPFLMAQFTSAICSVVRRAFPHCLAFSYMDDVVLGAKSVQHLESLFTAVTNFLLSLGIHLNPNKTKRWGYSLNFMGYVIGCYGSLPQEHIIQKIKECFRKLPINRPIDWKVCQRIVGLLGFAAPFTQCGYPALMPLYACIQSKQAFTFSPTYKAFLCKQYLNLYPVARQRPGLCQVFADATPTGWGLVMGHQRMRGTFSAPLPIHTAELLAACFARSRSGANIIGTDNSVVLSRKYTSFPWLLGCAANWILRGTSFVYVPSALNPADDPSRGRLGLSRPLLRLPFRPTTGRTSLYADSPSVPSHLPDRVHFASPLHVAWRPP

## Nc1nc(O)c2ncn(COC(CO)CO)c2n1 [GCV, ganciclovir]
HBV [1]; maintenance iv GCV from day 87, over 359 days
  levels of HBV DNA: fluctuating levels of HBV DNA

## Nc1nc2c(ncn2CCC(CO)CO)c(=O)[nH]1 [Peniciclovir, penciclovir]
Duck HBV
  activity against duck HBV DNA synthesis: potent inhibitory activity
[2]
  HBV DNA polymerase-reverse transcriptase activity: inhibit

## CC(=O)OCC(CCn1cnc2cnc(N)nc21)COC(C)=O [famciclovir]
HBV [1]; day 600 (154 days of famciclovir)
  level of HBV DNA: 3,000 pg/ml
HBV [1]; day 816 (370 days famciclovir)
  level of HBV DNA: 8,800 pg/ml
HBV [1]; day 1302 (856 days of famciclovir), peak
  level of HBV DNA: 29,000 pg/ml
HBV [1]; day 1329 (883 days of famciclovir)
  level of HBV DNA: around 12,000 pg/ml
HBV [1]; dose increase to 500 mg twice daily on day 500 (FCV[II])
  HBV DNA change: decrease in HBV DNA
HBV [1]; switch to oral famciclovir 250 mg twice daily on day 446 (FCV[I])
  HBV DNA change: rise in HBV DNA
HBV [3]
  response to treatment: did not respond
Duck HBV virus
  intra-hepatic replication of duck HBV virus: inhibit
HBV [4]
  HBV DNA replication: reduce HBV DNA replication

## penciclovir triphosphate [PCV-TP]
HBV DNA polymerase [5]; day 816 of antiviral treatment (370 days famciclovir), Val519Leu/Leu526Met
  Inhibition of HBV DNA polymerase by PCV-TP: 0%
HBV DNA polymerase [5]; day 1329 of antiviral treatment (883 days famciclovir)
  Inhibition of HBV DNA polymerase by PCV-TP: 0%
HBV DNA polymerase [6]; day 600 of antiviral treatment (154 days famciclovir)
  Inhibition of HBV DNA polymerase by PCV-TP: 30%
HBV DNA polymerase [6]; pretreatment sample
  Inhibition of HBV DNA polymerase by PCV-TP: 40%
